From patent US10611765B2, “Pyrrolopyrimidine derivatives as Mps1/TTK kinase inhibitors” (Ohio State Innovation Foundation, priority 2014, dated 2020) come the findings set out here.

In one test the test system is BT-549. The test is described as follows: MTS anti-proliferative assay, BT-549. The class given is cell-based. Conditions: Homo sapiens, 168 h, BT-549, TNBC, basal B, treatment for 7 days. Here is the method:
(§1) The anti-proliferative effects and IC50 values of the compounds in the BC cell line panel were determined by MTS assay.
(§2) The cells, except Sk-Br-3, AU565 and BT-474 were maintained in a mixture of Dulbecco's modified Eagle's medium and Ham's F12 medium (1:1) (DMEM/F12) without phenol red supplemented with 5% fetal bovine serum (FBS) and 1× antibiotic-antimycotic (100 U/mL penicillin G sodium, 100 μg/mL streptomycin sulfate and 0.25 μg/mL amphotericin B) and were plated separately in flasks in a humidified incubator (5% CO2: 95% air, 37° C.). The media used for Sk-Br-3, AU565 and BT-474 cell lines was described in (1) Brueggemeier et al., J. Steroid Biochem. Mol. Biol., 2005; 95:129-136; and (2) Diaz-Cruz et al., J. Clin. Endocrinol. Metab., 2005; 90:2563-2570. The media were changed every 2-days. When the cells grew to about 80% confluence, cells were washed twice with calcium- and magnesium-free phosphate-buffered saline (PBS, pH 7.4), and then trypsinized with 0.05% trypsin-5.3 mm EDTA. The trypsinization was stopped by addition of culture medium with 5% FBS. After centrifugation, the dissociated cells were resuspended in the same medium and subcultured into 75-cm^2 culture flasks at a ratio of 1:5 flasks.
(§3) The BC cells were seeded at the density of 1,000 cells per well (100 μL) into 96 well plate in DMEM/F-12 (1:1), supplemented with 5% (v/v) FCS and incubated overnight at 37° C. Test compounds are solubilized in dimethyl sulfoxide (DMSO), diluted in cell culture medium to a range of final assay concentrations of 1 nM to 10 μM, added to cells and incubated for 7 days at 37° C. The medium including the test compound are refreshed at days 3 and 5. The MTS assay are carried out by using the CellTiter 96® AQueous One Solution Cell Proliferation Assay kit following the manufacturer's instruction.

Another test deals with CAL-51. In words: MTS anti-proliferative assay, CAL-51. The class given is cell-based. The conditions noted are these: Homo sapiens, 168 h, CAL-51, TNBC, basal, treatment for 7 days. Here is the method: as §1, §2, §3
(In general: Tetrazolium assays rely on reduction of a dye to a coloured formazan, in cell work by metabolically active cells.)

The next test has as its system MDA-MB-436. In words: MTS anti-proliferative assay, MDA-MB-436. The class given is cell-based. Conditions: Homo sapiens, 168 h, MDA-MB-436, TNBC, basal B, treatment for 7 days. The method, then: as §1
The media were changed every 2-days. When the cells grew to about 80% confluence, cells were washed twice with calcium- and magnesium-free phosphate-buffered saline (PBS, pH 7.4), and then trypsinized with 0.05% trypsin-5.3 mm EDTA. The trypsinization was stopped by addition of culture medium with 5% FBS.
as §3

A further test deals with CAMA-1. The test is described as follows: MTS anti-proliferative assay, CAMA-1. The class given is cell-based. Conditions: Homo sapiens, 168 h, CAMA-1, luminal, treatment for 7 days. Here is the method: as §1, §2, §3
The subject of another test is MDA-MB-231. In words: MTS anti-proliferative assay, MDA-MB-231. The class given is cell-based. Conditions: Homo sapiens, 168 h, MDA-MB-231, TNBC, basal B, treatment for 7 days. Here is the method: as §1, §2, §3
In a further test the test system is Sk-Br-3. The test is described as follows: MTS anti-proliferative assay, Sk-Br-3. The class given is cell-based. The conditions noted are these: Homo sapiens, 168 h, Sk-Br-3, luminal, treatment for 7 days. The method, then:
as §1, §2, §3

For another test, the system named is BT-474. In words: MTS anti-proliferative assay, BT-474. Type of test: cell-based. The conditions noted are these: Homo sapiens, 168 h, BT-474, luminal B, treatment for 7 days. Here is the method:
as §1, §2, §3

For a further test, the system named is Cal-51 cells. The test is described as follows: Centriole assembly / centrosome amplification assay, Cal-51. Type of test: cell-based. Here is the method:
(§4) For these cell biology assays, cells were plated onto poly-L-lysine coated coverslips in 24 well dishes using the medium and growth conditions described above, but using medium containing phenol red. At 24 hours after plating, compounds (or the equivalent amount of DMSO) were added to individual wells at various concentrations. Cells were incubated for 24 hours at 37° C. BrdU was added during the last 4 hours of the incubation, after which cells were fixed in pre-chilled methanol at −20 OC for 10 minutes, stained with centrosome markers, then treated with acid to denature chromosomal DNA prior to staining for BrdU. To assess centriole biogenesis, centriole number was determined for triplicate samples in cells that had entered S-phase as judged by incorporation of BrdU. Primary antibodies used were mouse anti-γTubulin (pericentriolar material) and rabbit anti-Centrin 2 (centrioles). Secondary antibodies used were Alexa594-conjugated donkey anti-mouse and Alexa488-conjugated donkey anti-rabbit.
For centriole assembly assays, Cal-51 and MDA-MB-468 cells were treated with candidate compounds prior to a short pulse of BrdU. Because the centriole pair is replicated at the G1/S transition, compounds that block centrosome assembly will lead to an increased number of BrdU-positive cells with two centrioles. In addition, like many breast cancer cells Cal-51 and MDA-MB-468 are capable of centrosome amplification, and compounds that block this centrosome amplification should reduce the number of BrdU-positive cells with more than four centrioles.

In another test the test system is MDA-MB-468 cells. The test is described as follows: Centriole assembly / centrosome amplification assay, MDA-MB-468. Type of test: cell-based. Conditions: compared to IN-1, AZ3146 and Compound 5. The method, then:
as §4
For centriole assembly assays, Cal-51 and MDA-MB-468 cells were treated with candidate compounds prior to a short pulse of BrdU. Because the centriole pair is replicated at the G1/S transition, compounds that block centrosome assembly will lead to an increased number of BrdU-positive cells with two centrioles. […]

The target in the next test is JNK1 (Homo sapiens, UniProt P45983). The conditions noted are these: read-out: IC50 JNK1; kinase profiling. The method, then:
(§5) Briefly, the inhibition potency to Mps1 kinase activity was determined by measurement of radioactive phosphotransfer to the specific substrate, Cetn2. The autophosphorylation of Mps1 was also measured using the same method without adding Cetn2 in the kinase assay reaction mixture. […] Mps1 activity was measured using 0.25 ng of recombinant GST-Mps1 protein in 50 mM TrisCl pH 7.5, 0.5 mM DTT, 10 mM MgCl2, 300 μM recombinant Cetn2 and 3 μM ^32P-γ-ATP. […] ATP was added to initiate the kinase assay, incubated at 30° C. for 30 min and five-fold volume of […] was added to quench the reaction. The whole reaction was immobilized on Immobilon-P^SQ PVDF membrane (Millipore) using a dot blotter connected to vacuum line. Each well was washed three times with 300 μL of PBS. The membrane was further washed by soaking in PBS, dried, and exposed overnight to a Phosphor Screen. The image was acquired by the Storm imaging system (Amersham). The density analyses were performed by using Image-J program, and kinetic constants were calculated by GraphPad Prism 5 software. Commercial kinase profiling assays were performed by Reaction Biology Corp., Malvern, Pa.

For a further test, the target named is twenty common kinases. The test is described as follows: Kinase profiling assays for twenty common kinases. The class given is biochemical. Here is the method: as §5
The next test deals with Cal-51 cells (tumor). In words: Tumor progression in athymic nude mice. Type of test: in vivo. The conditions noted are these: Cal-51 tumors, i.p. injection in DMSO, five-week study. Here is the method:
Compound 13 in DMSO was administered to the test mice by i.p. injection. Cal-51 cells were injected to induce tumor growth. At the end of the five-week study, the mice were sacrificed, and the tumors were measured, dissected and weighed (FIGS. 6 and 7).

What is called IC50 is the concentration that gives 50% inhibition.

Chain of JNK1 (P45983 whole entry): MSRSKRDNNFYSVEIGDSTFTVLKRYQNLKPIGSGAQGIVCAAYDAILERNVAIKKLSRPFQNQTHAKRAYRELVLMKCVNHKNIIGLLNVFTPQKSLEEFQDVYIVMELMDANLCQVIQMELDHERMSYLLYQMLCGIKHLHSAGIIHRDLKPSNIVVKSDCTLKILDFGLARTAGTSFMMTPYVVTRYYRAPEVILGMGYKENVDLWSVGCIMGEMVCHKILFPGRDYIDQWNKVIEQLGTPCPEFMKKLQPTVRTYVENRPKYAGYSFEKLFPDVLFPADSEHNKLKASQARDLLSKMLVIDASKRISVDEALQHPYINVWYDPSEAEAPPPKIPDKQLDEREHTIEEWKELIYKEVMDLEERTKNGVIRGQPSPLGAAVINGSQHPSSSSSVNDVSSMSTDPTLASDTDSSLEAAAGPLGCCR

With `COc1cc(N2CCC(O)CC2)ccc1Nc1nc(Nc2ccccc2S(=O)(=O)C(C)C)c2cc[nH]c2n1` [Compound 1, 1-(4-((4-((2-(isopropylsulfonyl)phenyl)amino)-7H-pyrrolo[2,3-d]pyrimidin-2-yl)amino)-3-methoxyphenyl)piperidin-4-ol], the IC50 in the test with BT-549 is 810 nM; in the test with CAL-51, 230 nM; with MDA-MB-436, 900 nM; in the test on CAMA-1, 360 nM; in the test with MDA-MB-231, over 10000 nM; in the test on Sk-Br-3 it was over 10000 nM. In addition, in the test with BT-474, the IC50 was over 10000 nM. Besides, the “percentage of cells with more than four centrioles (centrosome amplification)” value in the test with Cal-51 cells (Cal-51) is on record as “dose-dependent reduction”. Also, the “percentage of BrdU positive cells that have just two centrioles (centriole assembly)” value with Cal-51 cells (Cal-51, continued investigations) is “dose-dependent increase”. Besides, the “percentage of BrdU-positive cells that have just two centrioles” value in the test with MDA-MB-468 cells was “increases”. Also, in the test with MDA-MB-468 cells, the “percentage of cells with more than four centrioles” value was “decreases”.
Turning to `COc1cc(N2CCOCC2)ccc1Nc1nc(NC2CCCCC2)c2cc[nH]c2n1` [Compound 13, N4-cyclohexyl-N2-(2-methoxy-4-morpholinophenyl)-7H-pyrrolo[2,3-d]pyrimidine-2,4-diamine], the IC50 with CAL-51 is 450 nM; in the test on CAMA-1, 1100 nM; with MDA-MB-231, over 10000 nM; with Sk-Br-3, 780 nM; in the test with BT-474, 50 nM; on JNK1, 1670 nM. On twenty common kinases, the “kinases inhibited in profiling of twenty common kinases” value is “only two kinases”. In addition, the tumor progression result in the test with Cal-51 cells (tumor) is reported as “slowed the tumor progression”.
